# Data reported in patent publication US20130109682A1, “CYCLIC ETHER COMPOUNDS USEFUL AS KINASE INHIBITORS” (NOVARTIS AG, priority 2010, published 2013).
# Tests used:
# [1] = target: PIM2 (Homo sapiens, UniProt Q9P1W9); assay: Pim 2 AlphaScreen assay (high ATP); format: biochemical; settings: read-out: Pim2 IC50
# Method in brief: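 IC50 values rest on detection of phosphorylated Bad peptide: after a ~2 h kinase reaction, an EDTA stop buffer containing anti-phospho Ser/Thr antibody, Protein A and streptavidin AlphaScreen beads was added and read after overnight dark incubation. ATP was high (11-125× Km), with 2.5% DMSO in pH 7.5 Hepes buffer containing MgCl2, BSA, Tween-20 and DTT.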
# [2] = target: KDR kinase (Homo sapiens, UniProt P35968); assay: KDR kinase inhibition assay (LanthaScreen TR-FRET); format: biochemical; settings: TR-FRET assay
# KDR kinase, sequence (P35968 20-1356): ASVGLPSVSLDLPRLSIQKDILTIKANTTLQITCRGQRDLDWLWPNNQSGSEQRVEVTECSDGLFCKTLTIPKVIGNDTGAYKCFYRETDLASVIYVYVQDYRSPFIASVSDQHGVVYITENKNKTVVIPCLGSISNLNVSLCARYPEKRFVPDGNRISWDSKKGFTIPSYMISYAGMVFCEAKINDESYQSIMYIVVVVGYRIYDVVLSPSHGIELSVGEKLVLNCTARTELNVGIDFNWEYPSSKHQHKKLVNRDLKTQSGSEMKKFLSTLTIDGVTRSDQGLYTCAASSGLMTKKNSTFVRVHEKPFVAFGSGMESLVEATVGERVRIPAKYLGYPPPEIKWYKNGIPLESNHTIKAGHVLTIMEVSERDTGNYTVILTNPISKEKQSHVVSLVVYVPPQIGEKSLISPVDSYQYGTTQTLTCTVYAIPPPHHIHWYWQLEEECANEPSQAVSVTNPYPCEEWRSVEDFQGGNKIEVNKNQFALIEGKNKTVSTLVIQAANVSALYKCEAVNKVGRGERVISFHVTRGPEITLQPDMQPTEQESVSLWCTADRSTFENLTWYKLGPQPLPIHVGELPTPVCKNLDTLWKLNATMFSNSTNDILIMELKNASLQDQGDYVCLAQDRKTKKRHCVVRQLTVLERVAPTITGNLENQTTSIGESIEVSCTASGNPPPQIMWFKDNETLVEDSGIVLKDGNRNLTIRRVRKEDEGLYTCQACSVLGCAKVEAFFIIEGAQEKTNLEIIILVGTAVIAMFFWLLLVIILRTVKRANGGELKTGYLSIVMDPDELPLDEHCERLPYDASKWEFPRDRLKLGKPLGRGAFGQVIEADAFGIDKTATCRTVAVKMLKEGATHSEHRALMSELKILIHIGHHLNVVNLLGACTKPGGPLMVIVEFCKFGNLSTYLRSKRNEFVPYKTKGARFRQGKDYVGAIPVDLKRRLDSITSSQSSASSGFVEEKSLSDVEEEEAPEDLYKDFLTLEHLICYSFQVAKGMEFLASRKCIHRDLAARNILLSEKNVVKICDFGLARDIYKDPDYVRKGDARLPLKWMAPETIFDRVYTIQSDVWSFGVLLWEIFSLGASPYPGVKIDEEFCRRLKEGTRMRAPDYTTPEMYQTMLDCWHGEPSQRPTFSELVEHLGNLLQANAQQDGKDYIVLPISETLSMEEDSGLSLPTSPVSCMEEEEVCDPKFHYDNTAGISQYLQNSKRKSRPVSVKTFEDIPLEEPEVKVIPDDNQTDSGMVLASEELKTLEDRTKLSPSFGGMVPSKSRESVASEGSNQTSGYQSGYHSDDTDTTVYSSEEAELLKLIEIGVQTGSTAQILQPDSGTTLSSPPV
# Method in brief: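 Human KDR kinase (0.38 nM) phosphorylated poly-EAY (50 nM) with ATP in 50 mM Tris pH 7.4, 2 mM DTT, 10 mM Mg, 1 mM Ca for 1 h. Reaction stopped with EDTA, Tb-labeled P-20 antibody added for 45 min, and TR-FRET read as end point.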
# [3] = target: GSK3β (Homo sapiens, UniProt P49841); assay: GSK3β ATP depletion assay; format: biochemical; settings: ATP depletion assay; read-out: GSK3b IC50
# GSK3β, sequence (P49841 whole entry, species assumed): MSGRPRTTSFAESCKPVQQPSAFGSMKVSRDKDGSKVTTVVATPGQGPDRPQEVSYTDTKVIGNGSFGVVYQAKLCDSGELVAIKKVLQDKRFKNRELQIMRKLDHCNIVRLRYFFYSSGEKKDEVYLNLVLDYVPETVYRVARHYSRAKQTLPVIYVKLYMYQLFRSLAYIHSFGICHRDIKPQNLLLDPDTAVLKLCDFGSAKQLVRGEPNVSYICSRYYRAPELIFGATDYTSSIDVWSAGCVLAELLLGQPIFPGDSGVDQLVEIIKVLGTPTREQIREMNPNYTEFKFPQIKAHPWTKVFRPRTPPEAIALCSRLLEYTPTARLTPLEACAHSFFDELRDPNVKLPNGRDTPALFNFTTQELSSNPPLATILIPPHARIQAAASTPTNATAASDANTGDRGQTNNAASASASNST
# Method in brief: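 Kinase activity is read as ATP consumption: luciferase luminescence reports the ATP remaining once roughly half of the 2 μM ATP is used. Reaction mix: 5 nM GSK3β, 10 μM b-CREB peptide, 50 mM Tris pH 7.5, 15 mM MgCl2, 1 mM DTT, 0.1% BSA, 2.5% DMSO. Enzyme and peptide are preincubated 15 min before ATP is added.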
# [4] = tested on: KMS11 (human myeloma cell line); assay: Cell proliferation assay (CellTiter-Glo), KMS11; format: cell-based; settings: Homo sapiens, KMS-11; KMS11 cells, cell proliferation; read-out: KMS11-Luc EC50
# Method in brief: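 EC50 derived from CellTiter-Glo luminescence after 3-day exposure at 37° C. Compound was diluted to 2× in medium and added to an equal volume of cells. KMS11 myeloma cells were plated on assay day at 2000/well in IMDM with 10% FBS and sodium pyruvate.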
# PIM2, sequence (Q9P1W9 whole entry): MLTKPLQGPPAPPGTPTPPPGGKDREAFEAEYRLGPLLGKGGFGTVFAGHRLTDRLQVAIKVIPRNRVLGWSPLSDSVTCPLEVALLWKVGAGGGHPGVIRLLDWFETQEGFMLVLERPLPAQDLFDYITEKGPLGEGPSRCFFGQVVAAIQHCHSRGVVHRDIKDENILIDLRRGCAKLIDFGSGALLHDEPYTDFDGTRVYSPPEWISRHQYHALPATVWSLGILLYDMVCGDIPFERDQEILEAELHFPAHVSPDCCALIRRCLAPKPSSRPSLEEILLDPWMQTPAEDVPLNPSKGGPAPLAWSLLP
SMILES,IC50 [1] [nM],IC50 [2] [nM],IC50 [3] [nM],EC50 [4] [nM]
"CC(C)[C@@H]1C[C@H](N)C[C@H](c2ccncc2NC(=O)c2nc(-c3ccccc3)cnc2N)O1 [Example 291, 3-amino-N-(4-((2R,4S,6S)-4-amino-6-isopropyltetrahydro-2H-pyran-2-yl)pyridin-3-yl)-6-phenylpyrazine-2-carboxamide]",19.3,340,4.4,340
"CC[C@]1(O)[C@H](C)O[C@H](c2ccncc2NC(=O)c2nc(-c3ccccc3)cnc2N)C[C@@H]1N [Example 189, 3-amino-N-(4-((2S,4S,5R,6S)-4-amino-5-ethyl-5-hydroxy-6-methyltetrahydro-2H-pyran-2-yl)pyridin-3-yl)-6-phenylpyrazine-2-carboxamide]",25000,1400,71,8830
"CC(C)(C)[C@@H]1O[C@H](c2ccncc2NC(=O)c2nc(-c3ccccc3)cnc2N)C[C@H](N)[C@H]1O [Example 355, 3-amino-N-(4-((2S,4S,5R,6S)-4-amino-6-tert-butyl-5-hydroxytetrahydro-2H-pyran-2-yl)pyridin-3-yl)-6-phenylpyrazine-2-carboxamide]",8750,6400,170,210
"CC(C)[C@H]1O[C@@H](c2ccncc2NC(=O)c2nc(-c3ccccc3)cnc2N)C[C@@H](N)[C@@H]1O [Example 356, 3-amino-N-(4-((2R,4R,5S,6R)-4-amino-5-hydroxy-6-isopropyltetrahydro-2H-pyran-2-yl)pyridin-3-yl)-6-phenylpyrazine-2-carboxamide]",28.1,43,8.6,180
"Nc1ncc(-c2ccccc2)nc1C(=O)Nc1cnccc1[C@@H]1C[C@H](N)[C@@H]2CCC[C@@H]2O1 [Example 233, 3-amino-N-(4-((2S,4S,4aS,7aS)-4-aminooctahydrocyclopenta[b]pyran-2-yl)pyridin-3-yl)-6-phenylpyrazine-2-carboxamide]",5140,3000,330,100
"CC[C@]1(O)[C@H](N)C[C@H](c2ccncc2NC(=O)c2nc(-c3ccccc3)cnc2N)O[C@@H]1C [Example 187, 3-amino-N-(4-((2R,4R,5S,6R)-4-amino-5-ethyl-5-hydroxy-6-methyltetrahydro-2H-pyran-2-yl)pyridin-3-yl)-6-phenylpyrazine-2-carboxamide]",86.3,42,3.3,950
